row,SMILES,melting point [°C]
1,CCc1cn(C2OC(CNC(=O)C(C)Oc3cc(OC)c(Br)cc3Br)C(O)C2F)c(=O)[nH]c1=O (configuration not stated),223 to 224
2,CCN(CC)CC(O)c1cccc2c(C)c(C)oc12 (configuration not stated),138 to 142
3,CCOCCn1cc2c(C3C(=O)Nc4ccc(Cl)cc43)nc(NCC(C)O)nc2n1 (configuration not stated),> 300
4,C#CCOc1cc(-c2nn(C)c(S(C)=O)c2C)c(F)cc1Cl (configuration not stated),93 to 96
5,CCCC1COc2c(Cc3ccc(C(C)C)cc3)c(C)c(NC(=O)CC(C)(C)C)c(C)c21 (configuration not stated),144 to 145
6,CCOC(=O)NN=Cc1nc(C)[nH]c1C,208 to 210
7,N#CCCn1c(=N)sc2cc(OC(F)(F)F)ccc21,180
8,CS(=O)c1cccc2c1CC(=O)N2C(N)=O (configuration not stated),198 to 200
9,Cc1nnc(-c2ccc3occ(-c4cnn(C)c4)c3c2)o1,147 to 148
10,CCC(=O)NCCC1CCc2ccc3nn(C)cc3c21 (configuration not stated),105 to 107
11,CCOC(=O)c1nc(-c2ccc(OC)cc2)ns1,61 to 63
12,CC(=NOCC=Cc1ccccc1)C(=O)O,89 to 91
13,CCN1CC(=O)N(CCc2ccccc2)C1=S,66 to 68
14,CCOC(=O)NNc1ccc(N(C)CCO)nn1,131 to 133
15,c1coc2cc3ccnc3cc2c1,97
16,CC1NC(=Nc2ccccc2N2CCOCC2)NC1C (configuration not stated),142 to 143
17,CCCCCCCCCCCCc1ccccc1C(Sc1nc(C)c(C(=O)O)s1)C(=O)O (configuration not stated),88 to 91

row,SMILES,melting point [°C]
1,CS(=O)(=O)N(CCCl)N(C(=O)NCCCCl)S(C)(=O)=O,85 to 86
2,O=C1CC(c2ccc(O)cc2O)Oc2cc(O)cc(O)c21 (configuration not stated),258 to 259
3,CC1(N2C(=O)c3cccc(N)c3C2=O)CCC(=O)NC1=O (configuration not stated),268 to 269
4,CN(SN1CCOCC1)C(=O)Oc1cccc2c1OC(C)(C)C2,75 to 78
5,CCCOc1nc(N)c2ncn(C3CCCCC3)c2n1,146 to 148
6,N#Cc1ccc(Nn2cnnc2)cc1Br,234 to 236
7,Cc1ccc(Cl)cc1N1CN(C(C)C)CN(C)C1=S,83 to 85
8,CCOC(=O)c1c(O)c2cscc2[nH]c1=O,193
9,CC(C)C(=O)N[C@H]1N=C(c2ccccc2)c2ccccc2N(C)C1=O,87 to 107
10,CC(C)C1Cc2cnc3c(c2C1=O)CCO3 (configuration not stated),68 to 69
11,CCN1C(OC)=NC(C)=NS1(=O)=O,50 to 53
12,CCOC(=O)C1=C(C)Nc2nc(N3CCOCC3)nc(N3CCOCC3)c2C1c1cccnc1 (configuration not stated),229
13,COc1nc(C)nc(NC(=O)NS(=O)(=O)c2ccccc2C(=O)OCCCl)n1,167 to 170
14,CC1=CC2(C=C3CCC4C5CCC(=O)C5(C)CCC4C13C)OCCO2 (configuration not stated),159
15,Nc1nc2c(ncn2[C@@H]2CO[C@H](CO)[C@@H](O)C2)c(=O)[nH]1,> 300
16,COC(=O)[C@]1(OS(C)(=O)=O)C[C@H](CC(C)C)[C@@H](O)[C@H](O)C1,122 to 123

# More lines, now with the values ahead:
row,melting point [°C],SMILES
1,189 to 190,CCS(=O)(=O)CCC(=O)NNC(=O)N1Cc2cc(Cl)ccc2Oc2ccc(Cl)cc21
2,76 to 79,COCc1cc2ccccc2c(Oc2ccc(/C=C/C(=O)O)cc2)c1-c1ccccc1
3,131,CCCN(CCCN1C(=O)c2ccccc2S1(=O)=O)C1CCc2cccc(OC)c2C1 (configuration not stated)
4,134,CC1(C)CCOC1=C(Sc1ccc(Cl)cc1)n1ccnc1
5,223 to 226,CNc1cccc(-c2ccc3nnc(C)n3n2)c1
6,195 to 198,O=c1c2c(n(-c3cccc(Cl)c3)c3ncccc13)CCCC2
7,79 to 80,COC(=O)c1ccc(OC2=C3N=C4CCCCC4=C3C(Cc3ccc(OC)cc3)C=C2)o1 (configuration not stated)
8,168 to 170,CCn1cc(C(=O)NCc2ccc(Cl)cc2)c(=O)c2cc(C#CCOC(=O)CN3CCOCC3)sc21
9,144,CCOC(=O)c1oc(-c2ccc(C)cc2)cc(=O)c1Br
10,129 to 133,COc1ccc(Cl)cc1NC(=O)[C@H]1[C@H](c2ccc(S(N)(=O)=O)cc2)C1(C)C (relative stereo)
11,99 to 101,CN(C(=O)c1cccc(Cn2cnc3ccccc32)c1)C1CCCCC1
12,> 330,O=C1Nc2cc(Cl)ccc2C(=O)C1c1ccncc1 (configuration not stated)
13,158 to 160,CSc1cc2c(cc1C(F)(F)F)N(C(=O)Nc1ccc(C(=O)Nc3ccncc3)cc1)CC2
14,86 to 88,COc1ccc([C@]2(C)Cc3cc(OC)ccc3[C@@H]2CCC2OCCCO2)cc1 (racemic)
15,196 to 202,COc1ccc(-c2csc(C(=O)Nc3cc4ccccc4cn3)n2)cc1OC
16,106 to 108,COC(=O)CCC1(CCC(=O)OC)c2cc(I)ccc2-c2ccc(I)cc21
17,120,C[C@H](NC(=O)OC(C)(C)C)C(=O)OCC(C)(C)Nc1cccc2c1C(=O)c1ccccc1C2=O
18,129 to 130,COc1ccc(S(=O)(=O)Nc2ccccc2NC(=O)c2ccccc2C)cc1
19,179 to 181,Cc1cc(CC(=O)NCc2cccc3c2C(=O)N(C2CCC(=O)NC2=O)C3=O)on1 (configuration not stated)
20,187 to 189,O=C(Nc1ccc2c(c1)CCC(CCN1CCCC1)=C2)c1ccc(-c2ccc(F)cc2)cc1

row,melting point [°C],SMILES
1,186 to 187,C[C@]1(COc2ccc(N3CCC(Oc4ccc(OC(F)(F)F)cc4)CC3)nc2)Cn2cc([N+](=O)[O-])nc2O1
2,118 to 125,COc1cc(Nc2c(C#N)cnc3cc(-c4cc(CN5CCOCC5)c(CN5CCOCC5)s4)ccc23)c(Cl)cc1Cl
3,189 to 191,COc1ccc(Cn2c(=O)c(=NNc3ccccc3)c(=O)n(CCC(C)C)c3ccccc32)cc1
4,135 to 137,CCn1nc(C(=O)NC2CN(C)CCN(Cc3ccccc3)C2)c2ccccc21 (configuration not stated)
5,73.5 to 76.5,CC(C(=O)N(C)C)n1ccc(-c2cc(Cl)ccc2Cl)n1 (configuration not stated)
6,137 to 140,NC(=O)Cc1ccc(-c2ccc(F)cc2F)c(F)c1
7,227 to 229,CCc1cccc(N2C(c3ccc(Cl)cc3)=NS(=O)(=O)c3cnccc32)c1
8,114,CCOC(=O)c1c(-c2ccccc2)nc2c(C(F)(F)F)cccc2c1O
9,95 to 96,O=[N+]([O-])c1cccnc1NCc1ccc(Cl)cc1
10,135 to 138,Cc1cccc(Nc2cc(Nc3ccc(OCC(=O)N(C)C)cc3)ncn2)c1
11,128 to 130,O=C(COc1ccc(Cl)cc1)c1ccc(Br)s1
12,187 to 189,O=c1[nH]nc(-c2ccc(N3CCCCCC3)c([N+](=O)[O-])c2)c2ccccc12
13,208 to 209,COc1cc2c(c3ccccc13)N(C(C)=O)c1ccccc1S2
14,114,OCCNCC(O)c1cccc(OCc2ccccc2)c1 (configuration not stated)
15,139 to 140,CC(NC(=O)c1cccc(I)c1)C(O)c1ccccc1 (configuration not stated)
16,105 to 109,Cc1noc(NS(=O)(=O)c2ccccc2-c2ccc(-c3ncco3)cc2CNC=O)c1C
17,234 to 236,O=C(Nc1cc(Cl)cc(Cl)c1)Nc1ccc(Cl)cc1-c1nnn[nH]1
18,277 to 279,O=C1CNCc2cc(-c3ccc(F)cc3)c(C=NO)c3ccn1c23
19,168 to 170,CCOc1cc(-c2ccc(S(C)(=O)=O)cc2)c(-c2ccc(F)cc2)c(C(F)(F)F)n1
